Counter-ions that a name gives are not always drawn. Like-named read-outs stand apart in the source and are kept apart here.
Assays:
[1] = boiling point; Table 2, preferred dielectric compounds; cited from earlier work
[2] = Breakdown voltage at maximum system pressure; format: physicochemical; conditions: for Breakdown voltage compared with air: 1 atmosphere and maximum system pressure; for Breakdown voltage at maximum pressure: at maximum pressure: 5 atmospheres (73.5 psia), or lower pressure at which the gas liquefies
[3] = Dielectric strength by ASTM D2477; format: physicochemical; conditions: 1 atmosphere pressure, 0.1 inch gap, ambient temperature; ASTM D2477 or from literature
[4] = atmospheric pressure; cited from earlier work
[5] = gas phase; cited from earlier work
[6] = normal state; cited from earlier work

SMILES | MY BP [1] | other results
Cl [Hydrogen chloride] | −85.0 °C | 
CCF [Fluoroethane] | −37.7 °C | 
FC(F)(F)S [trifluoromethane thiol] | −36.7 °C | 
FC(F)(F)C(F)(F)C(F)(F)F [Octafluoropropane] | −36.7 °C | 
CC(N)C(=O)O (racemic) [DL-2-aminopropanoic acid] | −50.2 °C | 
O=CC(F)(F)F [trifluoroacetaldehyde] | −21.0 °C | 
FC(F)OC(F)(F)F [Difluoromethyl trifluoromethyl ether] | −35.3 °C | 
FC(F)F [Trifluoromethane] | −82.1 °C | 
FCC(F)(F)F [1,1,1,2-Tetrafluoroethane] | −26.1 °C | 
Cl [HCl, hydrogen chloride] |  | Breakdown voltage compared with air [2]: greater then air
FC(F)(F)F [Tetrafluoromethane] | −128.1 °C | 
FCF [Difluoromethane] | −51.7 °C | 
FC(F)C(F)F [1,1,2,2-Tetrafluoroethane] | −23.0 °C | 
CC(F)(F)F [Gas R143a, 1,1,1-Trifluoroethane] |  | Dielectric strength [3]: 5.8 kV/0.1 inch gap; Breakdown voltage at maximum pressure [2]: 29 kV/0.1 inch gap
O=C(C(=O)C(F)F)C(F)F [1,1,4,4-tetrafluoro-butane-2,3-dione] | −81.0 °C | 
F[Si](F)(F)F [SiF4, silicon tetrafluoride] |  | Breakdown voltage compared with air [2]: greater then air
FC(F)(F)C#CC(F)(F)F [1,1,1,4,4,4-hexafluoro-2-butyne] | −24.6 °C | 
N#CC(F)(F)F [Trifluoroacetonitrile] | −68.8 °C | 
N [Ammonia] | −33.3 °C | 
FS(F)(F)(F)(F)F [SF6, Sulfur hexafluoride] |  | Dielectric strength [3]: 14.0 kV/0.1 inch gap; Breakdown voltage at maximum pressure [2]: 70 kV/0.1 inch gap; Breakdown voltage compared with air [4]: nearly three times higher than air; Temperature below which it does not decompose [5]: ≥ 500 °C; Toxicity [6]: non-toxic
CC(F)F [Gas R152a, 1,1-Difluoroethane] |  | Dielectric strength [3]: 5.9 kV/0.1 inch gap; Breakdown voltage at maximum pressure [2]: 29.5 kV/0.1 inch gap
FC(F)(F)C(F)(F)F [Hexafluoroethane] | −78.2 °C | 
[N-]=[N+]=O [Nitrous oxide] | −88.5 °C | 
COC(F)(F)F [Ether, methyl trifluoromethyl] | −24.0 °C | 
FCC(F)(F)F [Gas R134a, 1,1,1,2-Tetrafluoroethane] |  | Dielectric strength [3]: 6.6 kV/0.1 inch gap; Breakdown voltage at maximum pressure [2]: 33 kV/0.1 inch gap
C#CC(F)(F)F [3,3,3-trifluoro-propyne] | −48.0 °C | 
FC(F)C(F)(F)F [Gas R125, Pentafluoroethane] |  | Dielectric strength [3]: 6.4 kV/0.1 inch gap; Breakdown voltage at maximum pressure [2]: 32 kV/0.1 inch gap
N#N [Nitrogen] | −195.8 °C | 
CC [Ethane] | −88.6 °C | 
